Results as given in PubChem BioAssay AID2060609 (Molecular Pharmacology Branch, DTP, NCI, 2025).

Test system: 855422-203-R-J1-PDC complex spheroids, viability
Assay: Anticancer human tumor 855422-203-R-J1-PDC patient-derived bladder carcinoma cell line growth inhibition [CLK]
Settings: for IC50: curve of first compound; for viability, T/C: stronger effect = lower value
In short: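 Patient-derived tumor cells grown as complex spheroids with HUVEC endothelial cells and mesenchymal stem cells, treated with drug combinations. Concentrations descend in half-log steps from near clinical Cmax, or from 10 microM if Cmax unknown.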

[1] = second compound 0.0316 µM, first compound 0.0316 µM
[2] = second compound 0.0316 µM, first compound 0.1 µM
[3] = second compound 0.0316 µM, first compound 0.316 µM
[4] = second compound 0.0316 µM, first compound 1 µM
[5] = second compound 0.0316 µM, first compound 3.16 µM
[6] = second compound 0.0316 µM, first compound 10 µM
[7] = second compound 0.1 µM, first compound 0.0316 µM
[8] = second compound 0.1 µM, first compound 0.1 µM
[9] = second compound 0.1 µM, first compound 0.316 µM
[10] = second compound 0.1 µM, first compound 1 µM
[11] = second compound 0.1 µM, first compound 3.16 µM
[12] = second compound 0.1 µM, first compound 10 µM
[13] = second compound 0.316 µM, first compound 0.0316 µM
[14] = second compound 0.316 µM, first compound 0.1 µM
[15] = second compound 0.316 µM, first compound 0.316 µM
[16] = second compound 0.316 µM, first compound 1 µM
[17] = second compound 0.316 µM, first compound 3.16 µM
[18] = second compound 0.316 µM, first compound 10 µM
[19] = second compound 1 µM, first compound 0.0316 µM
[20] = second compound 1 µM, first compound 0.1 µM
[21] = second compound 1 µM, first compound 0.316 µM
[22] = second compound 1 µM, first compound 1 µM
[23] = second compound 1 µM, first compound 3.16 µM
[24] = second compound 1 µM, first compound 10 µM
[25] = second compound 3.16 µM, first compound 0.0316 µM
[26] = second compound 3.16 µM, first compound 0.1 µM
[27] = second compound 3.16 µM, first compound 0.316 µM
[28] = second compound 3.16 µM, first compound 1 µM
[29] = second compound 3.16 µM, first compound 3.16 µM
[30] = second compound 3.16 µM, first compound 10 µM
[31] = second compound 10 µM, first compound 0.0316 µM
[32] = second compound 10 µM, first compound 0.1 µM
[33] = second compound 10 µM, first compound 0.316 µM
[34] = second compound 10 µM, first compound 1 µM
[35] = second compound 10 µM, first compound 3.16 µM
[36] = second compound 10 µM, first compound 10 µM
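Also: spheroids exposed to drugs for seven days before readout.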
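For viability, T/C in this document: 100% = DMSO vehicle control wells.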

COc1ccc([C@@H](O)c2cc(-c3ncnc4cc(N5CCOCC5)ccc34)c(F)cc2Cl)nn1 + CN1CCN(c2cc(C(=O)Nc3cc4cc(-c5cnn(C)c5)ccc4cn3)ccn2)CC1
IC50 (second compound 0.0316 µM): 5350 nM
IC50 (second compound 0.1 µM): 5050 nM
IC50 (second compound 0.316 µM): < 31.6 nM
IC50 (second compound 1 µM): < 31.6 nM
IC50 (second compound 3.16 µM): < 31.6 nM
IC50 (second compound 10 µM): < 31.6 nM
viability, T/C [1]: 104%
viability, T/C [2]: 118%
viability, T/C [3]: 91.3%
viability, T/C [4]: 94%
viability, T/C [5]: 66%
viability, T/C [6]: 29.9%
viability, T/C [7]: 84.7%
viability, T/C [8]: 96.1%
viability, T/C [9]: 89.2%
viability, T/C [10]: 86%
viability, T/C [11]: 64.6%
viability, T/C [12]: 28.7%
viability, T/C [13]: 6.51%
viability, T/C [14]: 8.74%
viability, T/C [15]: 5.23%
viability, T/C [16]: 4.62%
viability, T/C [17]: 5.93%
viability, T/C [18]: 5.44%
viability, T/C [19]: 0.14%
viability, T/C [20]: 0.19%
viability, T/C [21]: 0.74%
viability, T/C [22]: 0.11%
viability, T/C [23]: 2.55%
viability, T/C [24]: 0.09%
viability, T/C [25]: 1.7%
viability, T/C [26]: 0.33%
viability, T/C [27]: 1.52%
viability, T/C [28]: 0.2%
viability, T/C [29]: 0.33%
viability, T/C [30]: 0.13%
viability, T/C [31]: 0.6%
viability, T/C [32]: 0.27%
viability, T/C [33]: 0.24%
viability, T/C [34]: 0.24%
viability, T/C [35]: 0.26%
viability, T/C [36]: 0.19%

COc1cccc2c1C(=O)c1c(O)c3c(c(O)c1C2=O)CC(O)(C(=O)CO)CC3OC1CC(N)C(O)C(C)O1 (stereo not drawn) + CN1CCN(c2cc(C(=O)Nc3cc4cc(-c5cnn(C)c5)ccc4cn3)ccn2)CC1
IC50 (second compound 0.0316 µM): < 31.6 nM
IC50 (second compound 0.1 µM): < 31.6 nM
IC50 (second compound 0.316 µM): < 31.6 nM
IC50 (second compound 1 µM): < 31.6 nM
IC50 (second compound 3.16 µM): < 31.6 nM
IC50 (second compound 10 µM): < 31.6 nM
viability, T/C [1]: 8.97%
viability, T/C [2]: 3.16%
viability, T/C [3]: 0.95%
viability, T/C [4]: 0.46%
viability, T/C [5]: 0.59%
viability, T/C [6]: 1.01%
viability, T/C [7]: 8.75%
viability, T/C [8]: 1.14%
viability, T/C [9]: 0.71%
viability, T/C [10]: 1.31%
viability, T/C [11]: 0.35%
viability, T/C [12]: 0.34%
viability, T/C [13]: 1.19%
viability, T/C [14]: 1.5%
viability, T/C [15]: 0.36%
viability, T/C [16]: 0.28%
viability, T/C [17]: 0.35%
viability, T/C [18]: 0.27%
viability, T/C [19]: 0.21%
viability, T/C [20]: 0.29%
viability, T/C [21]: 0.23%
viability, T/C [22]: 0.31%
viability, T/C [23]: 0.39%
viability, T/C [24]: 0.81%
viability, T/C [25]: 0.29%
viability, T/C [26]: 0.57%
viability, T/C [27]: 0.22%
viability, T/C [28]: 0.22%
viability, T/C [29]: 0.42%
viability, T/C [30]: 0.22%
viability, T/C [31]: 0.09%
viability, T/C [32]: 0.17%
viability, T/C [33]: 1.68%
viability, T/C [34]: 0.13%
viability, T/C [35]: 0.76%
viability, T/C [36]: 1.02%

CCCS(=O)(=O)Nc1ccc(F)c(C(=O)c2c[nH]c3ncc(-c4ccc(Cl)cc4)cc23)c1F + CNC(=O)c1ccc(Nc2nc(OC3CCCC3)c3c(-c4ccc5nc(C)oc5c4)c[nH]c3n2)c(OC)c1
IC50 (second compound 0.0316 µM): 5680 nM
IC50 (second compound 0.1 µM): 1030 nM
IC50 (second compound 0.316 µM): < 31.6 nM
IC50 (second compound 1 µM): < 31.6 nM
IC50 (second compound 3.16 µM): < 31.6 nM
IC50 (second compound 10 µM): < 31.6 nM
viability, T/C [1]: 90.8%
viability, T/C [2]: 79.9%
viability, T/C [3]: 112%
viability, T/C [4]: 92.2%
viability, T/C [5]: 114%
viability, T/C [6]: 3.65%
viability, T/C [7]: 50.6%
viability, T/C [8]: 52.7%
viability, T/C [9]: 48.5%
viability, T/C [10]: 49.6%
viability, T/C [11]: 46%
viability, T/C [12]: 6.89%
viability, T/C [13]: 23.8%
viability, T/C [14]: 23.8%
viability, T/C [15]: 19.8%
viability, T/C [16]: 19.9%
viability, T/C [17]: 21.4%
viability, T/C [18]: 5.35%
viability, T/C [19]: 17.7%
viability, T/C [20]: 20.9%
viability, T/C [21]: 17.9%
viability, T/C [22]: 20.2%
viability, T/C [23]: 16.9%
viability, T/C [24]: 4.43%
viability, T/C [25]: 22.2%
viability, T/C [26]: 14.9%
viability, T/C [27]: 18.7%
viability, T/C [28]: 15.1%
viability, T/C [29]: 19.5%
viability, T/C [30]: 4.41%
viability, T/C [31]: 18.2%
viability, T/C [32]: 19.6%
viability, T/C [33]: 20%
viability, T/C [34]: 17.6%
viability, T/C [35]: 15.1%
viability, T/C [36]: 5.26%

COC1C=CCC(C)C(C)S(=O)(=O)NC(=O)c2ccc3c(c2)N(CC2CCC21)CC1(CCCc2cc(Cl)ccc21)CO3 (stereo not drawn) + CNC(=O)c1ccc(Nc2nc(OC3CCCC3)c3c(-c4ccc5nc(C)oc5c4)c[nH]c3n2)c(OC)c1
IC50 (second compound 0.0316 µM): 7390 nM
IC50 (second compound 0.1 µM): > 10000 nM
IC50 (second compound 0.316 µM): < 31.6 nM
IC50 (second compound 1 µM): < 31.6 nM
IC50 (second compound 3.16 µM): < 31.6 nM
IC50 (second compound 10 µM): < 31.6 nM
viability, T/C [1]: 96%
viability, T/C [2]: 105%
viability, T/C [3]: 122%
viability, T/C [4]: 132%
viability, T/C [5]: 151%
viability, T/C [6]: 24.7%
viability, T/C [7]: 53.6%
viability, T/C [8]: 63.6%
viability, T/C [9]: 54.1%
viability, T/C [10]: 77.3%
viability, T/C [11]: 105%
viability, T/C [12]: 33.3%
viability, T/C [13]: 20%
viability, T/C [14]: 23.7%
viability, T/C [15]: 20.7%
viability, T/C [16]: 17.2%
viability, T/C [17]: 34.1%
viability, T/C [18]: 22%
viability, T/C [19]: 19.8%
viability, T/C [20]: 17.3%
viability, T/C [21]: 18.2%
viability, T/C [22]: 19.5%
viability, T/C [23]: 21.9%
viability, T/C [24]: 29%
viability, T/C [25]: 15.8%
viability, T/C [26]: 18.1%
viability, T/C [27]: 16.4%
viability, T/C [28]: 15.1%
viability, T/C [29]: 20.8%
viability, T/C [30]: 23.3%
viability, T/C [31]: 17.7%
viability, T/C [32]: 18.6%
viability, T/C [33]: 17.9%
viability, T/C [34]: 17.4%
viability, T/C [35]: 17.9%
viability, T/C [36]: 23.3%
